Data reported in the NIST ThermoML archive (doi:10.1016/j.jct.2015.11.028).
± gives the expanded uncertainty stated by the source.

Experiment: mn = molality of the nth substance listed, in mol/kg
Conditions: 298.15 K, 100 kPa, Liquid, Vibrating tube method

Q: For `C[N+](C)(C)C[C@H](O)CC(=O)[O-]` [(R)-3-hydroxy-4-(trimethylammonio)butanoate] + O, which mass density (m1 = 0.8817) is on record?
A: 1023.6 ± 0.21 kg/m3

Q: Which results are given for `[Cl-].[K+]` [potassium chloride] + O?
A: mass density (m1 = 0.5): 1019.83 ± 0.11 kg/m3; mass density (m1 = 0.9998): 1041.41 ± 0.11 kg/m3; mass density (m1 = 1.499): 1062.03 ± 0.12 kg/m3; mass density (m1 = 2): 1081.48 ± 0.12 kg/m3; mass density (m1 = 2.499): 1100.25 ± 0.12 kg/m3; mass density (m1 = 2.98): 1117.69 ± 0.13 kg/m3

Q: With `[Br-].[Na+]` [sodium bromide] + O as the compound, how does the mass density (m1 = 0.5) read?
A: 1035.42 ± 0.11 kg/m3

Q: What about the mass density (m1 = 0.9999) of the same compound?
A: 1072.67 ± 0.12 kg/m3

Q: What about the mass density (m1 = 1.5) of the same compound?
A: 1107.94 ± 0.13 kg/m3

Q: What about the mass density (m1 = 2) of the same compound?
A: 1142.48 ± 0.14 kg/m3

Q: What about the mass density (m1 = 2.5) of the same compound?
A: 1175.65 ± 0.14 kg/m3

Q: And the mass density (m1 = 2.999)?
A: 1207.24 ± 0.15 kg/m3

Q: Which results are given for `[Cl-].[Na+]` [sodium chloride] + O?
A: mass density (m1 = 1): 1036.18 ± 0.11 kg/m3; mass density (m1 = 1.5): 1054.74 ± 0.12 kg/m3; mass density (m1 = 2): 1072.27 ± 0.12 kg/m3; mass density (m1 = 2.499): 1089.16 ± 0.12 kg/m3; mass density (m1 = 3): 1105.67 ± 0.13 kg/m3
